The target in experiment [1] is Bromodomain-containing protein 4 (Homo sapiens, UniProt O60885). Kind of experiment: Inhibition of 6His-tagged Thr-BRD4 (BD1) (1 to 477 residues) (unknown origin) expressed in Escherichia coli BL21(DE3) after 30 mins in presence of biotinylated triacetylated histone H4 peptide by alexa fluor 647 dyse based TR-FRET assay. For orientation: TR-FRET usually uses a lanthanide donor and a delayed reading to cut background.

Experiment [2] has as its target T1, ATPase family AAA domain-containing protein 2 (Homo sapiens, UniProt Q6PL18).
T1 sequence (Q6PL18 whole entry): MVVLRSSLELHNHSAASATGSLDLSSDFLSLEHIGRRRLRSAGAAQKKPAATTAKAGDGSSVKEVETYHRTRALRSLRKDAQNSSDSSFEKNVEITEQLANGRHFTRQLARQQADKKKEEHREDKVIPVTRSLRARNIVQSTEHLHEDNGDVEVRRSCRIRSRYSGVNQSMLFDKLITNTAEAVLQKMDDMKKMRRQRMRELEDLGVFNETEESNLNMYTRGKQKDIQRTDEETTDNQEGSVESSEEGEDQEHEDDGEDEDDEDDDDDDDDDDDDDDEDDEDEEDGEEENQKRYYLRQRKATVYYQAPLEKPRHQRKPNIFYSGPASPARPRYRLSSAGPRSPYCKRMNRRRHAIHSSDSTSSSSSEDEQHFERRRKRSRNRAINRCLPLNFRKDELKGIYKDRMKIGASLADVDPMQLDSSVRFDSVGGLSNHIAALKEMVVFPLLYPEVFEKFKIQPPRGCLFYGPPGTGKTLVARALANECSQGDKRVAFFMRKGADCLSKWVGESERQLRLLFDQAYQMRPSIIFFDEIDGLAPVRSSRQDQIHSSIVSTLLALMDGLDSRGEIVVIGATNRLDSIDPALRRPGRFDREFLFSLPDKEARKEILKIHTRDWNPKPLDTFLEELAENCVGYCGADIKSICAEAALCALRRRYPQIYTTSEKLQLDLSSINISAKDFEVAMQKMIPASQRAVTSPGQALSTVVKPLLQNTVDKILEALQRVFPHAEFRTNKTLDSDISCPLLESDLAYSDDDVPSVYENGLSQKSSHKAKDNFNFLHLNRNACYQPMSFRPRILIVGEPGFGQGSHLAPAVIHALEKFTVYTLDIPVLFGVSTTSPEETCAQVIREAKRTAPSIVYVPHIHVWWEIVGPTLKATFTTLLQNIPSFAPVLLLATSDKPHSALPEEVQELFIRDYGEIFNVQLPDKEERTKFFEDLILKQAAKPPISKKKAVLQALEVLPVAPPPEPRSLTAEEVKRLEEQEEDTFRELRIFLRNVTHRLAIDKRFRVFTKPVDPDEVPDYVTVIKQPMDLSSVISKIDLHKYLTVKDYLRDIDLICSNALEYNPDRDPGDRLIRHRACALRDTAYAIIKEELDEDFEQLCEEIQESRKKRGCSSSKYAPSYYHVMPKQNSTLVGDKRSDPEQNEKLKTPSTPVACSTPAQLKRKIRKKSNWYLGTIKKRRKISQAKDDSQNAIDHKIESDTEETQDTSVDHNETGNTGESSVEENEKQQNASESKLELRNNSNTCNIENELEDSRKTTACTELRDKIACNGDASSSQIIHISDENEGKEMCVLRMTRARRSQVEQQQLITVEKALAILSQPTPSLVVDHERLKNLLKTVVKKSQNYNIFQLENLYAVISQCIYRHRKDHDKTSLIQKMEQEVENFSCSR
As to the kind of experiment: Inhibition of N-terminal FLAG-6His-tagged TEV-fused ATAD2 (981 to 1121 residues) (unknown origin) expressed in Escherichia coli BL21(DE3) after 30 mins in presence of biotinylated triacetylated histone H4 peptide by alexa fluor 488-dye based TR-FRET assay.

Each structure is given as a SMILES string.

For the compound `Cc1cncc(-c2cnc(N[C@@H]3CCNC[C@H]3OCC3CCOCC3)c3[nH]c(=O)c(C)cc23)c1`, the IC50 (in general, the concentration that gives 50% inhibition) in experiment [1] is 10 µM.

With `Cc1cc2ccnc(N[C@@H]3CCNC[C@H]3OCC3CCCCC3)c2[nH]c1=O`, in experiment [1], the IC50 is 3.98 µM.

For `CO[C@@H]1CNCC[C@H]1Nc1nccc2cc(C)c(=O)[nH]c12`, the IC50 in experiment [1] was 5.01 µM.

For `CO[C@H]1CNC[C@@H](OC)[C@@H]1Nc1nccc2cc(C)c(=O)[nH]c12`, the IC50 in experiment [1] and in experiment [2] was 25.1 µM each time.

Regarding `Cc1cncc(-c2cnc(N[C@@H]3C[C@H]4CC[C@H](N4)[C@H]3CCC3CCOCC3)c3[nH]c(=O)c(C)cc23)c1`, the results for the IC50 in experiment [1] and in experiment [2] were 7.94 µM and 0.251 µM, respectively.

With `Cc1cncc(-c2cnc(N[C@@H]3C[C@H]4CC[C@H](N4)[C@H]3CCC3CCC(F)(F)CC3)c3[nH]c(=O)c(C)cc23)c1`, the IC50 in experiment [1] is 5.01 µM; in experiment [2] it was 0.1 µM.

Take `Cc1cncc(-c2ccc(N[C@@H]3CCNC[C@H]3OCC3CCC(F)(F)CC3)c3[nH]c(=O)c(C)cc23)c1`: the IC50 in experiment [1] is 6.31 µM; in experiment [2] it was 0.0398 µM.

`Cc1cncc(-c2cnc(N[C@@H]3C[C@H]4CC[C@H](N4)[C@H]3CCC3CCS(=O)(=O)CC3)c3[nH]c(=O)c(C)cc23)c1`: the IC50 in experiment [1] was more than 50.1 µM; in experiment [2], 0.251 µM.

`CO[C@H]1CNC[C@@H](OCC2CCOCC2)[C@@H]1Nc1ncc(-c2cncc(C)c2)c2cc(C)c(=O)[nH]c12`: the IC50 was 31.6 µM in experiment [1] and 0.2 µM in experiment [2].

Take `Cc1cncc(-c2ccc(N[C@@H]3C[C@H]4CC[C@H](N4)[C@H]3CCC3CCS(=O)(=O)CC3)c3[nH]c(=O)c(C)cc23)c1`: the IC50 is 5.01 µM in experiment [1] and 0.251 µM in experiment [2].

As to `CO[C@H]1CNC[C@@H](OCC2CCS(=O)(=O)CC2)[C@@H]1Nc1ncc(-c2cncc(C)c2)c2cc(C)c(=O)[nH]c12`, the IC50 in experiment [1] was 158 µM; in experiment [2], 0.126 µM.
